This note sets out measurements from patent EP4810052A2, “HCRHR2 SELECTIVE POLYPEPTIDES” (Gubra A/S, priority 2023, dated 2026).

The target in one experiment is T1, hCRHR2 (Homo sapiens, UniProt Q13324).
T1 sequence (Q13324 1-411): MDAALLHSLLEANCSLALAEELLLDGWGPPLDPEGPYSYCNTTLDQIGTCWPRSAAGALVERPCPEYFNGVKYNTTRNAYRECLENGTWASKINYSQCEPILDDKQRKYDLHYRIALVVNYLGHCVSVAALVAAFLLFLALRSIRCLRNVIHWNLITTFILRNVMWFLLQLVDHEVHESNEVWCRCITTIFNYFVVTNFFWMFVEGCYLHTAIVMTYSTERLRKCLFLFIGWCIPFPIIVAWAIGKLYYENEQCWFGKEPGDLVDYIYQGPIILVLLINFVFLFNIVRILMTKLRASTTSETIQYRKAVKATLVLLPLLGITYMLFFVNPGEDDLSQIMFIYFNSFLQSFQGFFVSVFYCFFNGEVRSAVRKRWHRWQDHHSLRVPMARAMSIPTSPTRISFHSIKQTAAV
Description: HTRF cAMP assay, determination of hCRHR2 potency (peptide libraries 5 conc., purified peptides 11 conc.). The class given is cell-based. The procedure, abridged: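 Read-out was HTRF competitive cAMP detection (d2-labelled cAMP, cryptate-labelled antibody) in suspended, freshly thawed CHO-K1 cells stably carrying human CRHR2.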
On the technique in general: TR-FRET usually uses a lanthanide donor and a delayed reading to cut background.

A further experiment has as its target T2, hCRHR1 (Homo sapiens, UniProt P34998).
T2 sequence (P34998 24-415): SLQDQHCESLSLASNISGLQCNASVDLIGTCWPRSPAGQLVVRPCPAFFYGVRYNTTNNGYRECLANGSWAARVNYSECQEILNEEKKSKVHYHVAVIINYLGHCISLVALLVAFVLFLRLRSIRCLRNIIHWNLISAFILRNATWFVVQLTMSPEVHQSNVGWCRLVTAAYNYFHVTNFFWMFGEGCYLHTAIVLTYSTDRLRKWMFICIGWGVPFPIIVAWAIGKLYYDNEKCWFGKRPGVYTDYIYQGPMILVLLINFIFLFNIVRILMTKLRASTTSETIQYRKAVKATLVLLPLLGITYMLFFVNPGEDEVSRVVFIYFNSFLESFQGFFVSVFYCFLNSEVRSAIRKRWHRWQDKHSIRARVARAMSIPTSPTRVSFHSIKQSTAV
Put plainly: HTRF cAMP assay, determination of hCRHR1 potency (peptide libraries 5 conc., purified peptides 11 conc.). The class given is cell-based. The procedure, abridged: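 Cellular cAMP was read by time-resolved FRET between d2-labelled cAMP and cryptate anti-cAMP antibody. The cells were freshly thawed suspension CHO-K1 cells stably expressing human CRHR1.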

The mark [1] stands for this setting: library peptides, matched molecular pairs L vs Nle in position X^38, read-out: Potency hCRHR2 pEC50 (converted).
Where [2] appears, read: library peptides, matched molecular pairs L vs Nle in position X^38, read-out: Potency hCRHR1 pEC50 (converted).

Where two headings read alike, the source gives them in different places. Starred links: 1 amine or outer side, 2 acyl side, 3 side chain; linkers in the order of their positions; H or OH if unused. Non-standard residues stand in square brackets, D forms with d. Residues, ends and D or L forms follow the SMILES beside them. Groups on a side chain read outwards from the residue. *: point of attachment. C20 diacid = O=C(O)CCCCCCCCCCCCCCCCCCC(=O)*; γGlu = O=C(O)[C@H](CCC(=O)[*:2])N[*:1]; NMeI = CC[C@H](C)[C@H](NC)C(=O)O; Nle = CCCC[C@H](N)C(=O)O; AEEA = NCCOCCOCC(=O)O; Aib = CC(C)(N)C(=O)O

With `CCCC[C@H](NC(=O)[C@@H](NC(=O)[C@H](CCC(=O)O)NC(=O)[C@H](C)NC(=O)[C@H](CC(N)=O)NC(=O)C(C)(C)NC(=O)[C@H](CCCCNC(=O)COCCOCCNC(=O)COCCOCCNC(=O)CC[C@H](NC(=O)CC[C@H](NC(=O)CCCCCCCCCCCCCCCCCCC(=O)O)C(=O)O)C(=O)O)NC(=O)[C@H](C)NC(=O)[C@H](CCC(N)=O)NC(=O)[C@H](CCC(=O)O)NC(=O)[C@H](CCCNC(=N)N)NC(=O)[C@H](C)NC(=O)[C@H](C)NC(=O)[C@H](CCCNC(=N)N)NC(=O)[C@H](C)NC(=O)[C@H](CCCNC(=N)N)NC(=O)[C@H](C)NC(=O)[C@H](CCC(N)=O)NC(=O)[C@H](CCC(=O)O)NC(=O)[C@H](CC(C)C)NC(=O)[C@H](CC(C)C)NC(=O)[C@@H](NC(=O)[C@H](CCC(N)=O)NC(=O)[C@H](CC(C)C)NC(=O)[C@H](CC(C)C)NC(=O)CNC(=O)[C@@H](NC(=O)[C@@H]1CCCN1C(=O)[C@@H](NC(=O)[C@H](CC(=O)O)NC(=O)[C@H](CC(C)C)NC(=O)[C@H](CO)NC(=O)[C@H](CC(C)C)NC(=O)[C@@H](NC(=O)[C@@H](NC)[C@@H](C)CC)C(C)C)C(C)C)[C@@H](C)CC)[C@@H](C)CC)[C@@H](C)CC)C(=O)N[C@@H](C)C(=O)N[C@@H](CCC(=O)O)C(=O)N[C@H](C(N)=O)C(C)C` [compound 124] (H-[NMeI]VLSLDVPIGLLQILLEQARARAAREQAK([AEEA-AEEA-γGlu-γGlu-C20 diacid])[Aib]NAEI[Nle]AEV-NH2), the EC50 on hCRHR2 (Table 4, library peptides having X^38 = Nle, read-out: hCRHR2 pEC50 (converted)) was 0.00631 nM; at hCRHR1 (Table 4, library peptides having X^38 = Nle, read-out: hCRHR1 pEC50 (converted)) it was 251 nM. In addition, the “Selectivity hCRHR1 EC50/hCRHR2 EC50” value at hCRHR2 (Table 4, ratio, or comparison with Ref. 1 (SEQ ID NO: 205) / Ref. 2 (SEQ ID NO: 124)) is given as 40378.
In the case of `CC[C@H](C)[C@H](N)C(=O)N[C@H](C(=O)N[C@@H](CC(C)C)C(=O)N[C@@H](CO)C(=O)N[C@@H](CC(C)C)C(=O)N[C@@H](CC(=O)O)C(=O)N[C@H](C(=O)N1CCC[C@H]1C(=O)N[C@H](C(=O)NCC(=O)N[C@@H](CC(C)C)C(=O)N[C@@H](CC(C)C)C(=O)N[C@@H](CCC(N)=O)C(=O)N[C@H](C(=O)N[C@@H](CC(C)C)C(=O)N[C@@H](CC(C)C)C(=O)N[C@@H](CO)C(=O)N[C@@H](CCC(N)=O)C(=O)N[C@@H](C)C(=O)N[C@@H](CCCNC(=N)N)C(=O)N[C@@H](C)C(=O)N[C@@H](CCCNC(=N)N)C(=O)N[C@@H](C)C(=O)N[C@@H](C)C(=O)N[C@@H](CCCNC(=N)N)C(=O)N[C@@H](CCC(=O)O)C(=O)N[C@@H](CCC(N)=O)C(=O)N[C@@H](C)C(=O)N[C@@H](CCCCNC(=O)COCCOCCNC(=O)COCCOCCNC(=O)CC[C@H](NC(=O)CC[C@H](NC(=O)CCCCCCCCCCCCCCCCCCC(=O)O)C(=O)O)C(=O)O)C(=O)N[C@H](C(=O)N[C@@H](CC(N)=O)C(=O)N[C@@H](C)C(=O)N[C@@H](CCC(=O)O)C(=O)N[C@H](C(=O)N[C@@H](CC(C)C)C(=O)N[C@@H](C)C(=O)N[C@@H](CCC(=O)O)C(=O)N[C@H](C(N)=O)[C@@H](C)CC)[C@@H](C)CC)[C@@H](C)O)[C@@H](C)CC)[C@@H](C)CC)C(C)C)C(C)C` [compound 88] (H-IVLSLDVPIGLLQILLSQARARAAREQAK([AEEA-AEEA-γGlu-γGlu-C20 diacid])TNAEILAEI-NH2), the EC50 on hCRHR2 (setting [1]) was 0.631 nM; at hCRHR1 (setting [2]), 39800 nM.
As for `CCCC[C@H](NC(=O)[C@@H](NC(=O)[C@H](CCC(=O)O)NC(=O)[C@H](C)NC(=O)[C@H](CC(N)=O)NC(=O)[C@@H](NC(=O)[C@H](CCCCNC(=O)COCCOCCNC(=O)COCCOCCNC(=O)CC[C@H](NC(=O)CC[C@H](NC(=O)CCCCCCCCCCCCCCCCCCC(=O)O)C(=O)O)C(=O)O)NC(=O)[C@H](C)NC(=O)[C@H](CCC(N)=O)NC(=O)[C@H](CCC(N)=O)NC(=O)[C@H](CCCNC(=N)N)NC(=O)[C@H](C)NC(=O)[C@H](C)NC(=O)[C@H](CCCNC(=N)N)NC(=O)[C@H](C)NC(=O)[C@H](CCCNC(=N)N)NC(=O)[C@H](C)NC(=O)[C@H](CCC(N)=O)NC(=O)[C@H](CCC(=O)O)NC(=O)[C@H](CC(C)C)NC(=O)[C@H](CC(C)C)NC(=O)[C@@H](NC(=O)[C@H](CCC(N)=O)NC(=O)[C@H](CC(C)C)NC(=O)[C@H](CC(C)C)NC(=O)CNC(=O)[C@@H](NC(=O)[C@@H]1CCCN1C(=O)[C@@H](NC(=O)[C@H](CC(=O)O)NC(=O)[C@H](CC(C)C)NC(=O)[C@H](CO)NC(=O)[C@H](CC(C)C)NC(=O)[C@@H](NC(=O)[C@@H](N)[C@@H](C)CC)C(C)C)C(C)C)[C@@H](C)CC)[C@@H](C)CC)[C@@H](C)O)[C@@H](C)CC)C(=O)N[C@@H](C)C(=O)N[C@@H](CCC(=O)O)C(=O)N[C@H](C(N)=O)[C@@H](C)CC` [SEQ ID NO: 28] (H-IVLSLDVPIGLLQILLEQARARAARQQAK([AEEA-AEEA-γGlu-γGlu-C20 diacid])TNAEI[Nle]AEI-NH2), the EC50 at hCRHR2 (Table 3, matched molecular pairs X^38 L vs Nle, peptide library of Example 4, read-out: hCRHR2 pEC50 (converted)) is 0.158 nM; at hCRHR1 (Table 3, matched molecular pairs X^38 L vs Nle, peptide library of Example 4, read-out: hCRHR1 pEC50 (converted)) it was 1260 nM.
For the compound `CC[C@H](C)[C@H](N)C(=O)N[C@H](C(=O)N[C@@H](CC(C)C)C(=O)N[C@@H](CO)C(=O)N[C@@H](CC(C)C)C(=O)N[C@@H](CC(=O)O)C(=O)N[C@H](C(=O)N1CCC[C@H]1C(=O)N[C@H](C(=O)NCC(=O)N[C@@H](CC(C)C)C(=O)N[C@@H](CC(C)C)C(=O)N[C@@H](CCC(N)=O)C(=O)N[C@H](C(=O)N[C@@H](CC(C)C)C(=O)N[C@@H](CC(C)C)C(=O)N[C@@H](CO)C(=O)N[C@@H](CCC(N)=O)C(=O)N[C@@H](C)C(=O)N[C@@H](CCCNC(=N)N)C(=O)N[C@@H](C)C(=O)N[C@@H](CCCNC(=N)N)C(=O)N[C@@H](C)C(=O)N[C@@H](C)C(=O)N[C@@H](CCCNC(=N)N)C(=O)N[C@@H](CCC(=O)O)C(=O)N[C@@H](CCC(N)=O)C(=O)N[C@@H](C)C(=O)N[C@@H](CCCCNC(=O)COCCOCCNC(=O)COCCOCCNC(=O)CC[C@H](NC(=O)CC[C@H](NC(=O)CCCCCCCCCCCCCCCCCCC(=O)O)C(=O)O)C(=O)O)C(=O)N[C@H](C(=O)N[C@@H](CC(N)=O)C(=O)N[C@@H](C)C(=O)N[C@@H](CCC(=O)O)C(=O)N[C@H](C(=O)N[C@@H](CC(C)C)C(=O)N[C@@H](C)C(=O)N[C@@H](CCC(=O)O)C(=O)N[C@H](C(N)=O)C(C)C)[C@@H](C)CC)[C@@H](C)O)[C@@H](C)CC)[C@@H](C)CC)C(C)C)C(C)C` [compound 82] (H-IVLSLDVPIGLLQILLSQARARAAREQAK([AEEA-AEEA-γGlu-γGlu-C20 diacid])TNAEILAEV-NH2), the EC50 at hCRHR2 (setting [1]) is 0.631 nM; at hCRHR1 (setting [2]), 158000 nM.
The like results for `CCCC[C@H](NC(=O)[C@@H](NC(=O)[C@H](CCC(=O)O)NC(=O)[C@H](C)NC(=O)[C@H](CC(N)=O)NC(=O)[C@@H](NC(=O)[C@H](CCCCNC(=O)COCCOCCNC(=O)COCCOCCNC(=O)CC[C@H](NC(=O)CC[C@H](NC(=O)CCCCCCCCCCCCCCCCCCC(=O)O)C(=O)O)C(=O)O)NC(=O)[C@H](C)NC(=O)[C@H](CCCNC(=N)N)NC(=O)[C@H](CCC(=O)O)NC(=O)[C@H](CCCNC(=N)N)NC(=O)[C@H](C)NC(=O)[C@H](C)NC(=O)[C@H](CCC(N)=O)NC(=O)[C@H](C)NC(=O)[C@H](CCCNC(=N)N)NC(=O)[C@H](C)NC(=O)[C@H](CCC(N)=O)NC(=O)[C@H](CCC(=O)O)NC(=O)[C@H](CC(C)C)NC(=O)[C@H](CC(C)C)NC(=O)[C@@H](NC(=O)[C@H](CCC(N)=O)NC(=O)[C@H](CC(C)C)NC(=O)[C@H](CC(C)C)NC(=O)CNC(=O)[C@@H](NC(=O)[C@@H]1CCCN1C(=O)[C@@H](NC(=O)[C@H](CC(=O)O)NC(=O)[C@H](CC(C)C)NC(=O)[C@H](CO)NC(=O)[C@H](CC(C)C)NC(=O)[C@@H](NC(=O)[C@@H](N)[C@@H](C)CC)C(C)C)C(C)C)[C@@H](C)CC)[C@@H](C)CC)[C@@H](C)O)[C@@H](C)CC)C(=O)N[C@@H](C)C(=O)N[C@@H](CCC(=O)O)C(=O)N[C@H](C(N)=O)C(C)C` [compound 49] (H-IVLSLDVPIGLLQILLEQARAQAARERAK([AEEA-AEEA-γGlu-γGlu-C20 diacid])TNAEI[Nle]AEV-NH2) were, in that order, 0.126 nM and 3160 nM.
